From patent US20250051409A1, “MODULATORS OF PHOSPHATIDYLSERlNE DECARBOXYLASE AND USE THEREOF” (THE NATIONAL INSTITUTE FOR BIOTECHNOLOGY IN THE NEGEV LTD., priority 2021, published 2025)
Like-named read-outs stand apart in the source and are kept apart here. Square brackets hold non-standard residues; d marks the D form. Ends that are not written are not given here. Peptide text beside a SMILES is read from it. Dmt = Cc1cc(O)cc(C)c1C[C@H](N)C(=O)O; Orn = NCCC[C@H](N)C(=O)O

Assays:
A549 lung cancer cell = format: cell-based, human
Method: (B) Inhibition of PSD activity by the 2F3 (●) or 1C11 (◯) peptide. PSD activity was measured using the DSB-3 method. (C-E) Cell proliferation inhibition following incubation of A549 cells with the indicated mitochondria- or nuclear-targeted peptides for 24 h in a serum-free medium, and cell proliferation was assayed using the SRB method. Results are the means±SEM (n=3). (F) A549 cells were incubated for 90 min with 5 μM of the mitochondria- or nuclear targeted FITC-labelled peptides, immunostained with anti-SMAC antibodies and with DAPI and visualized by confocal microscope for subcellular localization. Arrows indicates nuclear (n=3). Scale bars represent 20
(A) A549 cells were incubated with the indicated concentration of 1C11-HTRA2-derived peptide targeted to the mitochondrion with the targeting sequence added to the N-terminus (N-Ter) or the C-terminus (C-Ter). (B) Mitochondrion targeted 1C11-HTRA2-derived peptide was modified by replacing the three amino acids in the C or the N-terminus of the peptide, or all amino acids in the peptide with the D-confirmation of the amino acid (underlined amino acids)). Following 24 h incubation in a serum-free medium, cell proliferation was assayed using the SRB method. (C) The concentration required for 50% inhibition of cell proliferation (IC50) is presented. Results are the means±SEM (n=3).
A549 (human lung adenocarcinoma epithelial cell), HEK-293T (human embryonic kidney), H1563/CRL-5875 (non-small cell lung cancer adenocarcinoma), H-358 (bronchioalveolar carcinoma), HaCaT (spontaneously transformed aneuploid immortal human skin keratinocyte), and WI-38 (fibroblast-like fetal lung cell) cell lines were purchased from the American Type Culture Collection (ATCC) (Manassas, VA), and were maintained as per ATCC instructions. Cells were maintained in ATCC recommended medium at 37° C. in an incubator with 5% CO2. Cell lines were routinely tested for Mycoplasma contamination. For SMAC overexpression, cells were seeded (200,000 cells/well) on 6-well culture plates and allowed to adhere overnight. These adhered cells were transfected with PVMV3.1-SMAC or empty vector using the JetPRIME transfection reagent (Illkirch, France), according to the manufacturers' instructions. Medium was changed 6 h post transfection, and cells were harvested 48 h post transfection.
Cells were seeded in 96-well cell culture plates (8,000/well) and allowed to grow for 48 h. After washing with PBS, cells were fixed with 10% trichloroacetic acid, and stained with SRB for 20 min. Excess SRB were removed, and cells were washed with 1% acetic acid. SRB extraction was done using 100 mM Tris-base, and absorbance at 510 nm was determined using an Infinite M1000 plate reader (Tecan, Mannedorf, Switzerland).

A549 cell xenografts = details: tumors injected 3 times a week, final concentration 50 μM
Method: A549 cells were S.C. inoculated into female nude mice (7×10^6 cells/mouse). Tumors sizes were measured (using a digital caliper) and volumes were calculated. When tumors volumes reached 60-100 mm3 (day 12), the mice were divided into 2 groups and xenografts were untreated (●) or treated with HtrA2/Omi-derived D-amino acid peptide targeted to the mitochondria (D-HTRA2-M, o). The tumors were injected 3 times a week to a final concentration of 50 μM. […] Tumors of A549 cell xenografts were dissected, photographed (B) and weighted (C). […] Results represent the means±SEM (n=8), **P≤0.01, ***P≤0.001.
A549 cells were inoculated subcutaneously into female nude mice (7×10^6 cells/mouse). Tumors sizes were measured (using a digital caliper) and volumes were calculated. When tumors volumes reached 60-100 mm3 (day 12), the mice were divided into 2 groups (control and treatment) and in the treatment group xenografts were treated with HtrA2/Omi-derived D-amino acid peptide (SEQ ID NO:35) targeted to the mitochondria. The tumors were injected 3 times a week to a final concentration of 50 μM or the peptide was administered by intravenous injection 2 times a week to a final concentration of 20 mg/kg. Tumors of A549 cell xenografts were dissected, photographed and weighted.

different cell lines = details: cited from earlier work

Compound	IC50 (A549 lung cancer cell; 24 h) [µM]	other results
CC[C@H](C)[C@H](NC(=O)[C@@H](NC(=O)[C@H](CC(N)=O)NC(=O)[C@H](C)NC(=O)[C@H](CCCCN)NC(=O)[C@H](CC(C)C)NC(=O)[C@H](CC(C)C)NC(=O)[C@H](CC(N)=O)NC(=O)[C@H](CC(=O)O)NC(=O)[C@H](CC(C)C)NC(=O)[C@@H](NC(=O)[C@@H]1CCCN1C(=O)[C@H](CC(C)C)NC(=O)[C@@H](NC(=O)[C@H](CS)NC(=O)[C@@H](NC(=O)[C@H](CC(C)C)NC(=O)[C@H](CCC(N)=O)NC(=O)[C@H](CCC(N)=O)NC(=O)[C@H](Cc1ccccc1)NC(=O)[C@H](Cc1ccccc1)NC(=O)[C@H](CCCN)NC(=O)[C@H](Cc1c(C)cc(O)cc1C)NC(=O)[C@H](N)CCCNC(=N)N)[C@@H](C)O)C(C)C)[C@@H](C)CC)C(C)C)C(=O)N[C@@H](CC(N)=O)C(=O)N[C@@H](CCCCN)C(=O)N[C@@H](CCC(N)=O)C(=O)N[C@@H](CCC(=O)O)C(=O)N[C@@H](Cc1c[nH]cn1)C(=O)O [D-Arg-Dmt-Orn-Phe-1E14] (H-[dR][Dmt][Orn]FFQQLTCVLPILDNLLKANVINKQEH-OH; N-terminus and C-terminus assumed)	> 100	–
Cc1cc(O)cc(C)c1C[C@H](NC(=O)[C@H](N)CCCNC(=N)N)C(=O)N[C@@H](CCCN)C(=O)N[C@@H](Cc1ccccc1)C(=O)N1CCC[C@H]1C(=O)N[C@@H](CC(N)=O)C(=O)N[C@@H](CCC(N)=O)C(=O)N[C@@H](CO)C(=O)N[C@@H](CO)C(=O)N[C@@H](CCCNC(=N)N)C(=O)N[C@@H](C)C(=O)N[C@@H](Cc1ccccc1)C(=O)N[C@@H](CCC(N)=O)C(=O)NCC(=O)N[C@H](C(=O)N[C@@H](CC(=O)O)C(=O)N[C@@H](Cc1c[nH]cn1)C(=O)N[C@@H](CO)C(=O)N[C@@H](CO)C(=O)N[C@@H](CC(=O)O)C(=O)N[C@@H](CC(C)C)C(=O)N[C@@H](C)C(=O)N[C@@H](Cc1ccccc1)C(=O)N[C@@H](CC(=O)O)C(=O)N[C@@H](Cc1ccccc1)C(=O)N[C@@H](CC(C)C)C(=O)N[C@@H](CO)C(=O)N[C@@H](CCC(N)=O)C(=O)N[C@@H](CCC(N)=O)C(=O)O)[C@@H](C)O [D-Arg-Dmt-Orn-Phe-2I8] (H-[dR][Dmt][Orn]FPNQSSRAFQGTDHSSDLAFDFLSQQ-OH; N-terminus and C-terminus assumed)	66.8 ± 4.7	–
CC[C@H](C)[C@H](NC(=O)[C@@H]1CCCN1C(=O)[C@H](CO)NC(=O)[C@H](CO)NC(=O)[C@@H](NC(=O)[C@H](CO)NC(=O)[C@H](CC(C)C)NC(=O)[C@H](C)NC(=O)[C@H](Cc1ccccc1)NC(=O)[C@H](CCCN)NC(=O)[C@H](Cc1c(C)cc(O)cc1C)NC(=O)[C@H](N)CCCNC(=N)N)[C@@H](C)O)C(=O)N1CCC[C@H]1C(=O)N[C@@H](CO)C(=O)N[C@H](C(=O)N1CCC[C@H]1C(=O)N[C@@H](CCC(N)=O)C(=O)N[C@@H](CO)C(=O)N[C@@H](CCC(N)=O)C(=O)N[C@@H](C)C(=O)N[C@@H](CCC(N)=O)C(=O)N1CCC[C@H]1C(=O)N[C@@H](CCC(N)=O)C(=O)N[C@H](C(=O)NCC(=O)N[C@@H](CO)C(=O)NCC(=O)N[C@@H](C)C(=O)N[C@@H](CO)C(=O)O)[C@@H](C)O)C(C)C [H-(D-Arg)-Dmt-Orn-Phe-2F3] (H-[dR][Dmt][Orn]FALSTSSPIPSVPQSQAQPQTGSGAS-OH; C-terminus assumed)	> 100	–
CC(C)C[C@H](NC(=O)[C@H](CCCNC(=N)N)NC(=O)[C@H](C)NC(=O)[C@H](Cc1c[nH]c2ccccc12)NC(=O)[C@H](CC(C)C)NC(=O)[C@H](CO)NC(=O)[C@@H]1CCCN1C(=O)[C@@H](NC(=O)CNC(=O)[C@H](Cc1ccc(O)cc1)NC(=O)[C@@H](NC(=O)[C@@H](NC(=O)[C@H](CCCNC(=N)N)NC(=O)[C@H](C)NC(=O)[C@H](CCCNC(=N)N)NC(=O)[C@@H]1CCCN1C(=O)[C@H](CC(=O)O)NC(=O)[C@H](CO)NC(=O)[C@@H](NC(=O)CNC(=O)[C@H](CO)NC(=O)[C@@H](NC(=O)[C@H](CC(C)C)NC(=O)[C@H](CC(C)C)NC(=O)[C@H](C)NC(=O)[C@H](CCCCN)NC(=O)[C@H](CCCNC(=N)N)NC(=O)[C@@H](CCCNC(=N)N)NC(=O)[C@@H](N)CCCNC(=N)N)[C@@H](C)O)[C@@H](C)O)C(C)C)[C@@H](C)O)[C@@H](C)O)C(=O)O [R-{D-Arg}-RK-1C11] (H-R[dR]RKALLTSGTSDPRARVTYGTPSLWARL-OH; N-terminus and C-terminus assumed)	66.5 ± 3.9	–
CC[C@H](C)[C@H](NC(=O)[C@@H](NC(=O)[C@H](CC(N)=O)NC(=O)[C@H](C)NC(=O)[C@H](CCCCN)NC(=O)[C@H](CC(C)C)NC(=O)[C@H](CC(C)C)NC(=O)[C@H](CC(N)=O)NC(=O)[C@H](CC(=O)O)NC(=O)[C@H](CC(C)C)NC(=O)[C@@H](NC(=O)[C@@H]1CCCN1C(=O)[C@H](CC(C)C)NC(=O)[C@@H](NC(=O)[C@H](CS)NC(=O)[C@@H](NC(=O)[C@H](CC(C)C)NC(=O)[C@H](CCC(N)=O)NC(=O)[C@H](CCC(N)=O)NC(=O)[C@H](Cc1ccccc1)NC(=O)[C@H](CCCCN)NC(=O)[C@H](CCCNC(=N)N)NC(=O)[C@@H](CCCNC(=N)N)NC(=O)[C@@H](N)CCCNC(=N)N)[C@@H](C)O)C(C)C)[C@@H](C)CC)C(C)C)C(=O)N[C@@H](CC(N)=O)C(=O)N[C@@H](CCCCN)C(=O)N[C@@H](CCC(N)=O)C(=O)N[C@@H](CCC(=O)O)C(=O)N[C@@H](Cc1c[nH]cn1)C(=O)O [R-{D-Arg}-RK-1E14] (H-R[dR]RKFQQLTCVLPILDNLLKANVINKQEH-OH; N-terminus and C-terminus assumed)	> 100	–
CC[C@H](C)[C@H](NC(=O)[C@@H]1CCCN1C(=O)[C@H](CO)NC(=O)[C@H](CO)NC(=O)[C@@H](NC(=O)[C@H](CO)NC(=O)[C@H](CC(C)C)NC(=O)[C@H](C)NC(=O)[C@H](CCCCN)NC(=O)[C@H](CCCNC(=N)N)NC(=O)[C@@H](CCCNC(=N)N)NC(=O)[C@@H](N)CCCNC(=N)N)[C@@H](C)O)C(=O)N1CCC[C@H]1C(=O)N[C@@H](CO)C(=O)N[C@H](C(=O)N1CCC[C@H]1C(=O)N[C@@H](CCC(N)=O)C(=O)N[C@@H](CO)C(=O)N[C@@H](CCC(N)=O)C(=O)N[C@@H](C)C(=O)N[C@@H](CCC(N)=O)C(=O)N1CCC[C@H]1C(=O)N[C@@H](CCC(N)=O)C(=O)N[C@H](C(=O)NCC(=O)N[C@@H](CO)C(=O)NCC(=O)N[C@@H](C)C(=O)N[C@@H](CO)C(=O)O)[C@@H](C)O)C(C)C [R-{D-Arg}-RK-2F3] (H-R[dR]RKALSTSSPIPSVPQSQAQPQTGSGAS-OH; N-terminus and C-terminus assumed)	28.9 ± 5.2	–
CC(C)C[C@H](NC(=O)[C@H](CC(=O)O)NC(=O)[C@H](CO)NC(=O)[C@H](CO)NC(=O)[C@H](Cc1c[nH]cn1)NC(=O)[C@H](CC(=O)O)NC(=O)[C@@H](NC(=O)CNC(=O)[C@H](CCC(N)=O)NC(=O)[C@H](Cc1ccccc1)NC(=O)[C@H](C)NC(=O)[C@H](CCCNC(=N)N)NC(=O)[C@H](CO)NC(=O)[C@H](CO)NC(=O)[C@H](CCC(N)=O)NC(=O)[C@H](CC(N)=O)NC(=O)[C@@H]1CCCN1C(=O)[C@H](CCCCN)NC(=O)[C@H](CCCNC(=N)N)NC(=O)[C@@H](CCCNC(=N)N)NC(=O)[C@@H](N)CCCNC(=N)N)[C@@H](C)O)C(=O)N[C@@H](C)C(=O)N[C@@H](Cc1ccccc1)C(=O)N[C@@H](CC(=O)O)C(=O)N[C@@H](Cc1ccccc1)C(=O)N[C@@H](CC(C)C)C(=O)N[C@@H](CO)C(=O)N[C@@H](CCC(N)=O)C(=O)N[C@@H](CCC(N)=O)C(=O)O [R-{D-Arg}-RK-2I8] (H-R[dR]RKPNQSSRAFQGTDHSSDLAFDFLSQQ-OH; N-terminus and C-terminus assumed)	> 100	–
ALSTSSPIPSVPQSQAQPQTGSGAS [2F3]	–	IC50 (A549 lung cancer cell): 19.6 µM
FQQLTCVLPILDNLLKANVINKQEH [1E14]	–	effect on cell growth (A549 lung cancer cell; targeted to the mitochondria or the nucleus): no effect on cell growth
SEQ ID NO:35: HtrA2/Omi-derived D-amino acid peptide targeted to the mitochondria ([dA][dL][dL][dT][dS]G[dT][dS][dD][dP][dR][dA][dR][dV][dT][dY]G[dT][dP][dS][dL][dW][dA][dR][dL])	–	decrease in tumor weight (A549 cell xenografts): up to 80%; increase of tumor volume (A549 cell xenografts; after 28 days): about 4 fold
[dR][Dmt][Orn]F [mtCPP-1]	–	induction of apoptosis (different cell lines): did not induce apoptosis; toxicity in cell lines (different cell lines): no toxicity
